This is an account of results in patent publication US9487557B2, “Peptides for management of lactation” (MILEUTIS LTD., priority 2012, dated 2016).

Holding throughout (type): in vivo
Assay [1] relates to mammary gland of lactating dairy cows. Nature of the assay: Field study of involution induction: change of pH in milk samples after a single intramammary infusion at dry-off. The following applies: difference in pH vs Day 0, single intramammary infusion, peptides 4 mg in 10 ml, casein hydrolyzate 20 ml; for Changes of pH in milk samples, Day 1, Mean: Day 1 post treatment; for Changes of pH in milk samples, Day 2, Mean: Day 2 post treatment; for Changes of pH in milk samples, Day 3, Mean: Day 3 post treatment. As to the method: (§1) A filed study was performed to assess the potential of a single intramammary dose of the synthetic peptides of the invention administered at dry (i.e. at the day in which milking is ceased), to induce rapid involution.
(§2) Total of 107 dairy cows were enrolled to the study, of which 45 received treatment and 62 served as a control. All cows were dairy cows at their first or further lactation that stand the inclusion/exclusion criteria. The study was a controlled blinded case-control study.
(§3) Case subjects received one dose by intramammary infusion of a particular peptide. Controls were lactating cows that received the following products by intramammary administration:
(§4) Five groups of 9 cows (total of 36 udder quarters per group) were scheduled as case groups. Each group was treated with one out of the five (5) phosphopeptides described in Example 1 hereinabove (P241210-01-01; 03; 05; 07 and 09). The peptides were administered once via intramammary infusion of 10 ml containing 4 mg peptide.
(§5) Set one: Five groups of 9 cows (total of 36 udder quarters per group) were scheduled as a first control set. Each group was treated with one out of the five (5) dephosphorylated peptides described in Example 1 hereinabove (P241210-01-02; 04; 06; 08 and 10). The peptides were administered once via intramammary infusion of 10 ml containing 4 mg peptide.
(§6) (i) Eleven cows (total of 44 udder quarters) treated with casein hydrolyzate (20 ml) administered once via intramammary infusion of 20 ml (around 1.8 mg/ml casein phosphopeptide (CPP), total=36 mg CPP for 20 ml)
(§7) All treatments (peptides, casein hydrolyzate and saline) were administered at the time point scheduled for cessation of milking (dry off). The day of administration was set as Day 0.
(§8) Sets of aseptic milk samples were collected in two separate vials once a day in the milking facility after the morning milking, on Day 0 and in post-treatment days 1, 2 and 3. The sampling time points were set to up to three days after treatment administration to ensure sufficient milk secretion for the measurements of all involution parameters. The volume of the samples was between 30 to 50 ml. The pH of the milk sample was measured in situ using a Cyberscan pH11 meter (Eutech Instruments, Singapore). The apparatus was calibrated each day by immersing the receptor in standard buffers of pH 7.0 and pH 4.01. Measurements were taken twice for each sample obtained from a mammary gland, with an interval of 30 seconds between measurements. pH measurement was repeated on-site by using the same sample vial. Before double-pH measurement, the milk sample vials were gently shaken three (3) times. After the pH measurement, the milk samples vials were kept in cool storage with a preservative product (Broad Spectrum Microtabs II—Bronopol and Metamycin—D&F Control System Inc., Two Technology Way, Norwood Mass. 02062 USA).
(§9) Endpoint Measures: pH, lactose and somatic cell counts (SCC) values from milk secretions at day 0 and during three (3) days post-treatment were taken. Results are described as the difference between the measures at each of the 3 days post treatment and the measured level at Day 0.
Table 2 below summarizes the effect of the peptides examined and of casein hydrolyzate (CNH) on the pH of milk samples taken 1, 2 and 3 days after the one-dose treatment with each peptide or CNH. The results are presented as the difference in pH value between each of the days post treatment and Day 0 (before treatment).

Assay [2] has the same test system. Nature of the assay: Field study of involution induction: change in lactose content of milk samples after a single intramammary infusion at dry-off. The following applies: difference in lactose concentration vs Day 0, single intramammary infusion, peptides 4 mg in 10 ml, casein hydrolyzate 20 ml; for Changes in Lactose content in milk samples, Day 1, Mean: Day 1 post treatment; for Changes in Lactose content in milk samples, Day 2, Mean: Day 2 post treatment; for Changes in Lactose content in milk samples, Day 3, Mean: Day 3 post treatment. As to the method:
as §1, §2, §3, §4, §5, §6, §7, §8
Lactose values in the milk samples were determined at the Central Laboratory of Milk Quality, Caesaria Industrial Park, Israel, according to ISO 2266211DF 198:2007.
Data from six quarters were excluded from the analysis of lactose changes. Data from one of those quarters were omitted due to a missing initial value. For the other five quarters, lactose concentrations taken during the three follow-up days could not be analyzed due to a rapid mammary involution process, resulting in non-sufficient milk sample for lactose analysis.
as §9
One of the most significant outcomes of involution in terms of milk composition is a reduction in lactose content. Thus, lactose concentration was also measured in the milk samples taken before and after peptide or CNH administration as described for the pH measurements hereinabove. […]

Assay [3] has the same test system. Nature of the assay: Field study of involution induction: change in somatic cell counts in milk samples after a single intramammary infusion at dry-off. The following applies: change vs Day 0, calculated from log transformation of raw data, single intramammary infusion, peptides 4 mg in 10 ml, casein hydrolyzate 20 ml; for Changes in Somatic Cell Counts in milk samples, Day 1, Mean: Day 1 post treatment; for Changes in Somatic Cell Counts in milk samples, Day 2, Mean: Day 2 post treatment; for Changes in Somatic Cell Counts in milk samples, Day 3, Mean: Day 3 post treatment. The protocol:
as §1, §2, §3, §4, §5, §6, §7, §8
Somatic cell count was also determined in milk samples by Fossomatic 360 (Foss Electric, Hillerod, Denmark), and based on guidelines from the USA National Mastitis Council. Laboratory Handbook on Bovine Mastitis. 1999. Ed. National Mastitis Council, Verona, Wis. 53593 USA.
as §9
Additional parameter that may be used to establish the progression of the involution process is the presence of somatic cells within the milk. The increase in cell count within the milk is the result of high degree of apoptotic epithelial cell death associated with involution. […] The results presented in the table were calculated from log transformation of the raw data that were highly variable.

Square brackets hold non-standard residues; d marks the D form. Ends that are not written are not given here. pS = N[C@@H](COP(=O)(O)O)C(=O)O

Lys-Lys-Ser-Ser-NH2 [C]: in assay [1], the “Changes of pH in milk samples, Day 1, Mean” value (“Changes of pH … Day 1, Mean” for short) amounted to 0.034; the “Changes of pH in milk samples, Day 2, Mean” value (from here on “Changes of pH … Day 2, Mean”) is recorded as −0.006; the “Changes of pH in milk samples, Day 3, Mean” value (from here on “Changes of pH … Day 3, Mean”) is on record as −0.001. For the same substance, in assay [2], the “Changes in Lactose content in milk samples, Day 1, Mean” value is reported as −0.846; the “Changes in Lactose content in milk samples, Day 2, Mean” value is reported as −1.554; the “Changes in Lactose content in milk samples, Day 3, Mean” value is −0.387. Further, in assay [3], the “Changes in Somatic Cell Counts in milk samples, Day 1, Mean” value was 0.511; the “Changes in Somatic Cell Counts in milk samples, Day 2, Mean” value is recorded as 1.194; the “Changes in Somatic Cell Counts in milk samples, Day 3, Mean” value is 0.650.
As to Lys-Lys-Ser-Ser-Ser-NH2 [B], in assay [1], the “Changes of pH … Day 1, Mean” value is −0.015; the “Changes of pH … Day 2, Mean” value is given as −0.019; the “Changes of pH … Day 3, Mean” value was found to be 0.065. Besides, in assay [2], the “Changes in Lactose content in milk samples, Day 1, Mean” value is given as −0.320; the “Changes in Lactose content in milk samples, Day 2, Mean” value is given as −0.969; the “Changes in Lactose content in milk samples, Day 3, Mean” value is −1.412. Besides, in assay [3], the “Changes in Somatic Cell Counts in milk samples, Day 1, Mean” value is reported as 0.109; the “Changes in Somatic Cell Counts in milk samples, Day 2, Mean” value was 0.664; the “Changes in Somatic Cell Counts in milk samples, Day 3, Mean” value is on record as 1.191.
Consider “Lys-Ser(P)-Ser(P)-Ser(P)-Glu-Glu-NH2 (K[pS][pS][pS]EE-NH2; N-terminus assumed; SMILES NCCCC[C@H](N)C(=O)N[C@@H](COP(=O)(O)O)C(=O)N[C@@H](COP(=O)(O)O)C(=O)N[C@@H](COP(=O)(O)O)C(=O)N[C@@H](CCC(=O)O)C(=O)N[C@@H](CCC(=O)O)C(N)=O) [E(p), casein-derived peptide, positive control]”, for which, in assay [1], the “Changes of pH … Day 1, Mean” value was determined as 0.045; the “Changes of pH … Day 2, Mean” value amounted to 0.061; the “Changes of pH … Day 3, Mean” value is listed as 0.128. In assay [2], the “Changes in Lactose content in milk samples, Day 1, Mean” value is −0.354; the “Changes in Lactose content in milk samples, Day 2, Mean” value is listed as −1.530; the “Changes in Lactose content in milk samples, Day 3, Mean” value is −2.042. Also, in assay [3], the “Changes in Somatic Cell Counts in milk samples, Day 1, Mean” value is on record as 0.060; the “Changes in Somatic Cell Counts in milk samples, Day 2, Mean” value is listed as 1.175; the “Changes in Somatic Cell Counts in milk samples, Day 3, Mean” value was 1.847.
